The source of these data is ChEMBL document CHEMBL1144748, “N-D-aldopentofuranosyl-N'-[p-(isoamyloxy)phenyl]-thiourea derivatives: potential anti-TB therapeutic agents” (2008).

Structures are written as SMILES. Values after ≈ are worked out from the molar mass of the structure shown.

The test system of the assay is Mycobacterium tuberculosis. The assay is described as follows: Antimycobacterial activity against Mycobacterium tuberculosis H37Rv by microplate alamar blue assay. The assay is classed as functional. On the technique in general: Alamar Blue is a resazurin reagent that responds to reducing activity.
What is called MIC is the least concentration at which growth counts as inhibited. Read a high MIC as a need for much substance. For the compound `CC(C)CCOc1ccc(NC(=S)NC2O[C@H](CO)[C@H](O)[C@H]2O)cc1` (stereo not given in full), the MIC was 6.25 mg/L (≈ 16.9 µM).

The compound `CC(C)CCOc1ccc(NC(=S)NC2O[C@H](CO)[C@@H](O)[C@@H]2O)cc1` (stereo not given in full) had an MIC of 1.56 mg/L (≈ 4.21 µM).

Compound `CC(C)CCOc1ccc(NC(=S)NC2O[C@H](CO)[C@@H](O)[C@H]2O)cc1` (stereo not given in full) returned an MIC of 3.12 mg/L (≈ 8.44 µM).

Take `CC(C)CCOc1ccc(NC(=S)NC2O[C@H](CO)[C@H](O)[C@@H]2O)cc1` (stereo not given in full): the MIC amounted to 50 mg/L (≈ 135 µM).

`CC(C)CCOc1ccc(NC(=S)Nc2ccc(OCCC(C)C)cc2)cc1` [TIOCARLIDE] had an MIC of 2.5 mg/L (≈ 6.24 µM).
